Assay [1] relates to Male Sprague Dawley rats on high fat diet. The assay is described as follows: 11 day rat DIO model (body weight, food intake, hematology, blood chemistries). The class given is in vivo. The following applies: 264 h, DIO rat, once a day for 11 days, read-out: DIO Rat 11-day weight loss vs vehicle; for inhibition in vivo at 0.3 mg/kg: 0.3 mpk sc; for inhibition in vivo at 1 mg/kg: 1.0 mpk sc. The source says: The objective of this study design is to investigate the efficacy of disclosed compounds in an 11 day rat DIO model used to screen compounds for pharmacologic efficacy on endpoints related to obesity and metabolism. Effects on body weight, food intake, hematology and blood chemistries were the primary readouts of this study design. […] Rats were fed Research Diets D12451 (45% High Fat) and provided water ad libitum. Rats were received and housed in the facility for at least two or three weeks prior to start of test article administration. On Day −4 or −3, rats were randomized into study groups based on body weight and body weights were continued to be recorded daily for the duration of the study. Daily food intake was assessed starting on Study Day −2 by weighing the hopper including the food to avoid loss of food in transfer.
Compounds were formulated into a 100% DMSO stock (at 9 mg/mL) prior to the start, and further diluted into the target working concentration using the vehicle of 10% DMSO in water. Prior to test article administration, starting on Day −3 a dosing acclimation occured with all animals receiving a subcutaneous injection of vehicle (10% DMSO) only for 3 days. Starting on Day 1, test compounds or vehicle were administered based on individual body weight, subcutaneously, once a day for 11 days. All animals were sacrificed on Day 11, approximately 2 hours following the final dosing on Day 11. After sacrifice, whole blood was collected and analyzed for hematology and blood chemistry parameters.
Compounds were tested vs. vehicle at various doses (1.0, 0.5, 0.3, 0.1, 0.03 mpk sc (mg per kg animal weight delivered subcutaneously), and the results are shown in Table 2 below.

For assay [2], the system named is Diet Induced Obese (DIO) C57BL/6 mice. In words: 10 day DIO mouse model (body weight, food intake, hematology, blood chemistry). The note with it: 240 h; DIO mouse, 0.3 mpk sc, once a day for 10 days; read-out: DIO Mouse 10-day weight loss vs vehicle. Type of assay: in vivo. The method, boiled down:
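DIO C57BL/6 mice on 60% kcal fat diet received compounds subcutaneously once daily for 10 days at 1.0, 0.5, 0.3, 0.1 or 0.03 mpk, in 10% DMSO in water, after 3-day vehicle acclimation. Body weight and food intake were recorded daily. Hematology and blood chemistry were taken on Day 11, 24 h post-final dose.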

Structures can show the parent of a compound that is named as a salt.

Consider `CO[C@@H]1[C@H](OC(=O)N2CCC(CCN3CC(F)(F)C3)C2)CC[C@]2(CO2)[C@H]1[C@@]1(C)O[C@@H]1CC=C(C)C` (stereo in doubt) [Example 57, (R)-(3R,4S,5S,6R)-5-methoxy-4-((2R,3R)-2-methyl-3-(3-methylbut-2-en-1-yl)oxiran-2-yl)-1-oxaspiro[2.5]octan-6-yl 3-(2-(3,3-difluoroazetidin-1-yl)ethyl)pyrrolidine-1-carboxylate], for which the inhibition in vivo at 0.3 mg/kg in assay [1] came to 5.3%; in assay [2], 17.4%.

Consider `CO[C@@H]1[C@H](OC(=O)N2CC(CCn3cccn3)C2)CC[C@]2(CO2)[C@H]1[C@@]1(C)O[C@@H]1CC=C(C)C` [Example 17, (3R,4S,5S,6R)-5-methoxy-4-((2R,3R)-2-methyl-3-(3-methylbut-2-enyl)oxiran-2-yl)-1-oxaspiro[2.5]octan-6-yl 3-(2-(1H-pyrazol-1-yl)ethyl)azetidine-1-carboxylate], for which the inhibition in vivo at 0.3 mg/kg in assay [1] was 5.1%; in assay [2] it was 12.6%.

Take `CO[C@@H]1[C@H](OC(=O)N2CC(CCN3CCN(CC(F)F)CC3)C2)CC[C@]2(CO2)[C@H]1[C@@]1(C)O[C@@H]1CC=C(C)C` [Example 34, (3R,4S,5S,6R)-5-methoxy-4-((2R,3R)-2-methyl-3-(3-methylbut-2-en-1-yl)oxiran-2-yl)-1-oxaspiro[2.5]octan-6-yl 3-(2-(4-(2,2-difluoroethyl)piperazin-1-yl)ethyl)azetidine-1-carboxylate]: the inhibition in vivo at 0.3 mg/kg in assay [1] amounted to 5.1%; in assay [2], 9.3%.

Regarding `CO[C@@H]1[C@H](OC(=O)N2CC[C@@H](CN3CCOCC3)C2)CC[C@]2(CO2)[C@H]1[C@@]1(C)O[C@@H]1CC=C(C)C` [Example 37, (S)-(3R,4S,5S,6R)-5-methoxy-4-((2R,3R)-2-methyl-3-(3-methylbut-2-en-1-yl)oxiran-2-yl)-1-oxaspiro[2.5]octan-6-yl 3-(morpholinomethyl)pyrrolidine-1-carboxylate formate], the figures for the inhibition in vivo at 0.3 mg/kg in assay [1] and in assay [2] were 5.3% and 11.1%, respectively.

For `CCN(CC)C[C@@H]1CCN1C(=O)O[C@@H]1CC[C@]2(CO2)[C@@H]([C@@]2(C)O[C@@H]2CC=C(C)C)[C@@H]1OC` [Example 40, (S)-((3R,4S,5S,6R)-5-methoxy-4-((2R,3R)-2-methyl-3-(3-methylbut-2-enyl)oxiran-2-yl)-1-oxaspiro[2.5]octan-6-yl) 2-((diethylamino)methyl)azetidine-1-carboxylate formate], in assay [1], the inhibition in vivo at 0.3 mg/kg worked out at 0.08% and the inhibition in vivo at 1 mg/kg stood at 4.73%. For the same compound, the inhibition in vivo at 0.3 mg/kg in assay [2] stood at 6%.

For `CCN(CC)C[C@H]1CCN1C(=O)O[C@@H]1CC[C@]2(CO2)[C@@H]([C@@]2(C)O[C@@H]2CC=C(C)C)[C@@H]1OC` [Example 43, (R)-((3R,4S,5S,6R)-5-methoxy-4-((2R,3R)-2-methyl-3-(3-methylbut-2-enyl)oxiran-2-yl)-1-oxaspiro[2.5]octan-6-yl) 2-((diethylamino)methyl)azetidine-1-carboxylate formate], in assay [1], the inhibition in vivo at 0.3 mg/kg came to 0.35% and the inhibition in vivo at 1 mg/kg turned out to be 2.9%. Besides, the inhibition in vivo at 0.3 mg/kg in assay [2] worked out at 2.7%.

Turning to `CO[C@@H]1[C@H](OC(=O)N2CC(CCN3CCC(F)(F)C3)C2)CC[C@]2(CO2)[C@H]1[C@@]1(C)O[C@@H]1CC=C(C)C` [Example 45, (3R,4S,5S,6R)-5-methoxy-4-((2R,3R)-2-methyl-3-(3-methylbut-2-enyl)oxiran-2-yl)-1-oxaspiro[2.5]octan-6-yl 3-(2-(3,3-difluoropyrrolidin-1-yl)ethyl)azetidine-1-carboxylate], the inhibition in vivo at 0.3 mg/kg in assay [1] stood at 5.2%; in assay [2] it was 16.8%.

The values above are taken from patent US9682965B2, “Fumagillol heterocyclic compounds and methods of making and using same” (Zafgen, Inc., priority 2015, dated 2017).
